Measurements from patent US20130158070A1, “CONJUGATES OF POLYUNSATURATED FATTY ACIDS AND AMINE-CONTAINING COMPOUNDS AND USES THEREOF” (priority 2010, published 2013).

Tests used:
[1] = tested on: DNBS-induced colitis; assay: DNBS-induced experimental colitis in mice, oral administration; assay type: in vivo; details: day four after DNBS, MWL001 50 mg/kg oral daily
Procedure: In this study, the effect of MWL001 on pro-inflammatory mediators in DNBS-induced experimental colitis in mice was evaluated. In particular it was observed that there was no expression of TNF-α, CD4, TGF-13, CD25 in the colon tissue from sham-treated mice. MWL001 and DEX were administered orally and daily starting at six hours after the DNBS challenge.
Colitis was induced with a very low dose of 2,4-dinitrobenzene sulfonic acid (DNBS) (4 mg per mouse) by using a modification of the method first described in mice. […] Mice were anesthetized by Enflurane. DNBS (4 mg in 100 μl of 50% ethanol) was injected into the rectum through a catheter inserted 4.5 cm proximally to the anus. The carrier alone (100 μl of 50% ethanol) was administered in control experiments. Thereafter, the animals were kept for 15 minutes in a Trendelenburg position to avoid reflux. […] On Day four, the animals were weighed and anaesthetized with chloral hydrate, and their abdomen was opened by a midline incision. The colon was removed, freed from surrounding tissues, opened along the antimesenteric border and processed for histology.
TNF-α and IL-6 levels were evaluated and colon tissues collected at four days after DNBS administration. Briefly, portions of terminal colon were homogenized as previously described in phosphate-buffered saline (PBS, ICN Biomedicals, Milan, Italy) containing two mmol/L of phenyl-methyl sulfonyl fluoride (PMSF, Sigma Chemical Co.). The assay was carried out using a colorimetric, commercial kit (R&D system Milan, Italy) according to the manufacturer instructions. All cytokines determinations were performed in duplicate serial dilutions.
At four days after DNBS administration, colon tissues were fixed in 10% (w/v) PBS-buffered formaldehyde and 7 μm sections were prepared from paraffin embedded tissues. After deparaffinization, endogenous peroxidase was quenched with 0.3% (v/v) hydrogen peroxide in 60% (v/v) methanol for 30 min. The sections were permeabilized with 0.1% (w/v) Triton X-100 in PBS for 20 min. Non-specific adsorption was minimized by incubating the section in 2% (v/v) normal goat serum in PBS for 20 min. Endogenous biotin or avidin binding sites were blocked by sequential incubation for 15 min with biotin and avidin (Vector Laboratories, Burlingame, Calif.), respectively. Sections were incubated overnight with: 1) purified polyclonal antibody directed towards CD4 (Santa Cruz Biotechnology, 1:500 in PBS, v/v) or 2) with purified anti-CD25 (Santa Cruz Biotecnology 1:500 in PBS, w/v) or 3) with anti- TNF-α polyclonal antibody (Santa Cruz Biotechnology, N-19:sc-1350, 1:500 in PBS, v/v) or 4) with anti-TGF-β polyclonal antibody (Santa Cruz, 1:500 in PBS, v/v).
Sections were washed with PBS, and incubated with a secondary antibody. Specific labelling was detected with a biotin-conjugated goat anti-rabbit IgG and avidin-biotin peroxidase complex (Vector Laboratories, Burlingame, Calif.).

[2] = tested on: oxazolone-induced allergic dermatitis; assay: Murine oxazolone-induced allergic dermatitis; assay type: in vivo, mice; details: hematoxylin and eosin stained sections
Excerpt: An allergic form of contact dermatitis can be induced in mice by repeated epicutaneous application of the chemical sensitizer oxazolone. This leads to local augmented thickness and weight increase of the skin area where the rechallenge was applied; from the histological point of view, oxazolone-induced dermatitis is characterized by severe mononuclear cell infiltration of the dermis with in situ production of the type 1 proinflammatory cytokines TNF-alpha, IL-1alpha and IFN-gamma. These well-defined mechanistic pathways of inflammatory skin damage make oxazolone-dermatitis a useful in vivo tool for pathogenic studies and a pharmacodynamic parameter to screen drugs of potential utility in counteracting type 1 cytokine dependent cutaneous immunoinflammatory responses such as those found in some forms of bullous disorders, cutaneous vasculitis and psoriasis.
The efficacy of MWL001 in the treatment of Murine oxazolone-induced allergic dermatitis was evaluated. MWL001 and DEX were administered one hour after the second challenge with oxazolone.
The mice were sensitized on day 0 by a single application of 10 ∞l of 2% oxazolone (Sigma Chimica, Milan, Italy) in ethanol to the inner and outer surface of the left ear. The disease was elicited by local rechallenge on day 7 with 15% oxazolone. The right ear was treated with the vehicle of oxazolone (acetone). Eighteen hours after […] the mice are sacrificed under ether anesthesia and both the right and left ears were excised.
Inflammation was assessed as the percentage increase in ear thickness and/or ear weight in the treated left ear vs. the vehicle-treated right ear. Ear thickness was measured with a digital calliper. The extent of the inflammation was quantified as follows: ear swelling (%)=100×(a−b)/b, where a is thickness/weight of the left (treated) ear and b is the thickness/weight of the right (untreated) ear.
Ear tissue samples were fixed with 4% formaldehyde in phosphate-buffered saline (PBS) and embedded in paraffin. Thereafter, 6-μm sections were deparaffinized with xylene, stained with hematoxylin-eosin and observed with a Zeiss microscope (Jena, Germany).

[3] = tested on: collagen induced arthritis; assay: Collagen induced arthritis (CIA), arthritis score, paw thickness, body weight; assay type: in vivo, DBA/1J mice; details: 50 mg/kg IP; for day from which arthritis score (AS) increases: 3 times a week, 12 administrations; for CIA development: overall conclusion; for arthritis thickness index (ATI) increase: from day 0 to day 70, groups 1M DHA-Tau, 2M DHA, 4M Ibuprofen
Procedure: In a different study, 34 male 8-10 weeks old DBA/1J mice were used. Animals were fed ad libitum a commercial rodent diet (Teklad Certified Global 18% Protein Diet cat #: 106S8216). Animals had free access to acidified drinking water (pH between 2.5 and 3.0) obtained from the municipality supply.
The effect of MWL-002 (conjugate of DHA and taurine) was tested and compared to that of Ibuprofen. Cremophore EL was used as a vehicle.
On day 0, each mouse was anesthetized by inhalation of 3% isofluorane and injected intradermally at the base of the tail with 0.1 ml of emulsion containing 100 μg collagen, using a 1-ml glass syringe with a 26-guade needle. Booster injection was performed at day 15 to the same injection site.
The tested materials were administered 3 times a week, via IP for a total of 12 administrations starting on day 1.
Observations for clinical score were performed twice weekly until study termination.
The severity of arthritis was scored based on the level of inflammation in each of the four paws and recorded as one of five grades according to the following:
Hind paw thickness (edema) was measured by digital caliper once a week until Day 14 and thereafter twice weekly and prior to study termination. Two cross sectional areas were marked, one on the paw and the other at the ankle (tarsal joint). Two measurements were made on each section, perpendicular to each other. The results obtained were calculated as the average areas of both hind limbs per animal.
Body weight was measured prior to dosing, during the study twice a week and prior to study termination.

[4] = target: T1, COX-2 (Homo sapiens, UniProt P35354); assay: COX-2 inhibition, enzyme immunoassay (EIA); assay type: biochemical; details: ratio of COX-1 IC50 to COX-2 IC50
T1 sequence (P35354 18-604): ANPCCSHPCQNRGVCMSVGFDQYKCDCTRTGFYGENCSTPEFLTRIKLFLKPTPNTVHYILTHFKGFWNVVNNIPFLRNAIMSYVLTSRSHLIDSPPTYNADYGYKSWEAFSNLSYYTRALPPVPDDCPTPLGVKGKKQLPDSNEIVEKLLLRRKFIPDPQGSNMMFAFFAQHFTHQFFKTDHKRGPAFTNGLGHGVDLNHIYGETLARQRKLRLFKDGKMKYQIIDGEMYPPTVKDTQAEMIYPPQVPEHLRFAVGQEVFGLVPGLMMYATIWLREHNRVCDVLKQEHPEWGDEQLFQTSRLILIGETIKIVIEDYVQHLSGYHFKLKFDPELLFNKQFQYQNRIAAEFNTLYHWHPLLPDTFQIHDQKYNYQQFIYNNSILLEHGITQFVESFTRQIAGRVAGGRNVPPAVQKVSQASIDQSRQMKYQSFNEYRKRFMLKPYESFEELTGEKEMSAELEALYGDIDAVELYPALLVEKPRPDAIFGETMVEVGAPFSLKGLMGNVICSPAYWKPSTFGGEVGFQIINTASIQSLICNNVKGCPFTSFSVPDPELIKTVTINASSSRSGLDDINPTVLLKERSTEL
Procedure: Exemplary conjugates as described herein were tested in vitro for inhibition of COX-1 and COX-2, using an enzyme immunoassay (EIA), as follows.
Cyclooxygenase catalyzes the first step in the biosynthesis of arachidonic acid (AA) to PGH2. PGF2α, produced from PGH2 by reduction with stannous chloride, is measured by enzyme immunoassay (ACETM competitive EIA).
Stock solutions of test compounds were dissolved in a minimum volume of DMSO. Briefly, to a series of supplied reaction buffer solutions (960 μl, 0.1M Tris-HCl pH 8.0 containing 5 mM EDTA and 2 mM phenol) with either COX-1 or COX-2 (10 μl) enzyme in the presence of heme (10 μl) were added 10 μl of various concentrations of test drug solutions (0.01, 0.1, 1, 10, 50, and 100 μM in a final volume of 1 ml). These solutions were incubated for a period of 5 minutes at 37° C. after which 10 μL of AA (100 μM) solution were added and the COX reaction was stopped by the addition of 50 μl of 1M HCl after 2 minutes. PGF2α, produced from PGH2 by reduction with stannous chloride was measured by enzyme immunoassay.
This assay is based on the competition between PGs and a PG-acetylcholinesterase conjugate (PG tracer) for a limited amount of PG antiserum. The amount of PG tracer that is able to bind to the PG antiserum is inversely proportional to the concentration of PGs in the wells since the concentration of PG tracer is held constant while the concentration of PGs varies. The concentration of the test compound causing 50% inhibition (IC50, μM) was calculated from the concentration-inhibition response curve (duplicate determinations).

`C[C@@H]1C[C@H]2[C@@H]3CCC4=CC(=O)C=C[C@]4(C)[C@@]3(F)[C@@H](O)C[C@]2(C)[C@@]1(O)C(=O)CO` [DEX, dexamathasone, reference compound] was tested, and the IL-6 colon levels ([1]; colorimetric kit) was “significant reduction”, the TNF-α colon levels ([1]; colorimetric kit) was “significant reduction” and the “expression of CD4 in colon tissue” value ([1]; immunostaining) was “significantly reduced”. For the same compound, the “expression of CD25 in colon tissue” value ([1]; immunostaining) was “significantly reduced”, the “expression of TGF-β in colon tissue” value ([1]; immunostaining) was “significantly reduced” and the “expression of TNF-α in colon tissue” value ([1]; immunostaining) was “significantly reduced”. For the same compound, the “histology: ear thickness and inflammatory cells in epidermis and dermis” value [2] was “markedly reduced”.

`CC/C=C\C/C=C\C/C=C\C/C=C\C/C=C\C/C=C\CCC(=O)O` [DHA, all-cis-4,7,10,13,16,19-docosahexaenoic acid] was tested, and the “day from which arthritis score (AS) increases” value [3] was 40 days, the CIA development [3] was “not substantially effective” and the “arthritis thickness index (ATI) increase” value [3] was 180%.

With `CC(C)Cc1ccc(C(C)C(=O)O)cc1` (centres unmarked) [Ibuprofen] the “day from which arthritis score (AS) increases” value [3] was 40 days, the CIA development [3] was “not substantially effective” and the “arthritis thickness index (ATI) increase” value [3] was 190%.

With `CCCCCCCC/C=C\CCCCCCCC(=O)n1cc(CC(=O)O)c2cc(O)ccc21` [MWL-007, N-oleoyl-5-hydroxy-indol-3-yl-acetic acid] the “Ratio (COX ½)” value [4] was 15.83.
